Columns and labels:
[1] = tested on: patients with moderate to severe atopic dermatitis; assay: Phase 2 randomized, double-blind, placebo-controlled clinical study of ICP-332 in atopic dermatitis patients; assay type: in vivo, human; conditions: Week 4
[2] = tested on: patients with moderate to severe atopic dermatitis; assay: EASI-75 (difference from placebo) of ICP-332 versus other drugs for treating AD as monotherapy, not head-to-head; assay type: in vivo, human; conditions: ICP-332 4 weeks, other drugs 12 or 16 weeks, approved recommended doses, phase III published literature
From the text: The treatment period for ICP-332 was 4 weeks, while it was 12 or 16 weeks for other drugs with their approved recommended doses from phase III studies. The data of other drugs are based on available published literature.
This is a randomized, double-blind, placebo-controlled, phase 2 study to evaluate the safety, efficacy, pharmacokinetics, and pharmacodynamics of ICP-332 (Compound A) in patients with moderate to severe atopic dermatitis.
A total of 75 subjects with 25 subjects in each group are enrolled. • (1) ICP-332 80 mg, QD for 28 days (40 mg*2 tablets+Placebo*1 tablet) • (2) ICP-332 120 mg. QD for 28 days (40 mg*3 tablets) • (3) Placebo. QD for 28 days (Placebo*3 tablets)

**Q.** Which results are given for `Cn1cc(Nc2ncc(Cl)c(N3C[C@@H]4CN(C(=O)CC#N)C[C@]4(C)C3)n2)cn1` [ICP-332]?
**A.** EASI 50, EASI 75, EASI 90, IGA 0/1 ([1]; 80 mg qd oral): significant improvements; percent change from baseline in EASI total score ([1]; 80 mg qd oral): significantly reduced the EASI total score (p<0.0001); EASI 50, EASI 75, EASI 90, IGA 0/1 ([1]; 120 mg qd oral): significant improvements; percent change from baseline in EASI total score ([1]; 120 mg qd oral): significantly reduced the EASI total score (p<0.0001); EASI-75 (difference from placebo) versus other drugs [2]: best EASI-75 value over placebo

Reference: patent US20260355197A1, “METHOD FOR TREATING ATOPIC DERMATITIS” (BEIJING INNOCARE PHARMA TECH CO., LTD., priority 2023, published 2026)
